These results are taken from patent US7514411B2, “Acylated benzylmaltosides as inhibitors of smooth muscle cell proliferation” (Wyeth, priority 1998, dated 2009).

Structures can show the parent of a compound that is named as a salt.

The first test concerns Porcine Smooth Muscle Cell. Nature of the test: Effects of compounds on cell proliferation using 3H thymidine incorporation. Particulars: @ 50 μM. The test is classed as cell-based. The method, then: The compounds of this invention are useful as antiproliferative agents. The following procedures show the evaluation of representative compounds of this invention in standard pharmacological test procedure which measured ability of the evaluated compound to inhibit smooth muscle cell proliferation
Effects of Compounds On Cell Proliferation Using ^3H Thymidine Incorporation
Human and porcine smooth muscle cells were tested in early passage (generally passage 3-7) at sub-confluent conditions. Cultures were grown in 16 mm (24 well) multi-well culture dishes in medium 199 supplemented with 10% fetal bovine serum and 2% antibiotic/antimycotic. At sub-confluence, the cells were placed in a defined serum free medium (AIM-V; Gibco) for 24-48 h prior to initiating the experimental protocol.
Compounds were added to each well at 50 fold dilution (20 μL/well) and the plates were incubated for 24-36 h at 37° C. in 5% CO2. Compounds were initially dissolved in 50% ethanol and serially diluted into media. Compounds were routinely evaluated at concentrations from 1 to 100 μM. As a control, grade II porcine intestinal mucosal heparin (sodium salt) was routinely evaluated in all cell preparations at concentrations from 0.1 to 100 μg/mL.
At the completion of the test procedure, plates were placed on ice, washed three times with ice cold phosphate buffered saline (PBS) and incubated in ice cold 10% trichloroacetic acid (TCA) got 30 min to remove acid soluble proteins. Solution was transferred to scintillation vials containing 0.4 N HCl (500 μL/vial to neutralize NaOH) and each well was rinsed two times with water (500 μL) for a total volume of 2 mL/vial.
Data was obtained, in triplicate, for both control and experimental samples. Control (100%) data was obtained from maximally stimulated cells, as the result of growth factor or serum stimulation. Experimental data was obtained from cells maximally stimulated with growth factor or serum and treated with compound. Data are expressed as an IC50 or percent inhibition in Table I below.
In general terms: Dividing cells build labelled thymidine or BrdU into new DNA.
As to `O=[N+]([O-])c1cc(CS[C@@H]2O[C@H](CO)[C@@H](O[C@H]3O[C@H](CO)[C@@H](O)[C@H](O)[C@H]3O)[C@H](O)[C@H]2O)ccc1Cl` [Example 18, (4-Chloro-3-nitro-benzyl)-1-deoxy-1-thio-β-D-maltoside], the “Porcine Smooth Muscle Cell Antiproliferation percent inhibition” value was found to be 25% @ 50.

The same test, now with this note: serum/growth factor stimulated cells, 3H thymidine incorporation, 24-36 h; read-out: Porcine Smooth Muscle Cell Antiproliferation IC50.
Take `CC(=O)OC[C@H]1O[C@H](O[C@H]2[C@H](OC(C)=O)[C@@H](OC(C)=O)[C@H](OCc3ccc(Cl)c(NC(=O)[C@@H](N)CC(=O)OC(C)(C)C)c3)O[C@@H]2COC(C)=O)[C@H](OC(C)=O)[C@@H](OC(C)=O)[C@@H]1OC(C)=O` [Example 2, N-{5-[(Hepta-O-acetyl-β-D-maltosyloxy)-methyl]-2-chloro-phenyl}-L-aspartamide-γ-tert-butyl ester]: the IC50 turned out to be 4.61 µM.

For the compound `CC(=O)Nc1cc(CS[C@@H]2O[C@H](COC(C)=O)[C@@H](O[C@H]3O[C@H](COC(C)=O)[C@@H](OC(C)=O)[C@H](OC(C)=O)[C@H]3OC(C)=O)[C@H](OC(C)=O)[C@H]2OC(C)=O)ccc1Cl` [Example 7], the IC50 came out at 7.97 µM.

In the case of `CC(=O)OC[C@H]1O[C@@H](SCc2ccc(Cl)c(N)c2)[C@H](OC(C)=O)[C@@H](OC(C)=O)[C@@H]1O[C@H]1O[C@H](COC(C)=O)[C@@H](OC(C)=O)[C@H](OC(C)=O)[C@H]1OC(C)=O` [Example 6, (3-Amino-4-chloro-benzyl) hepta-O-acetyl-1-thio-β-D-maltoside], the IC50 came out at 0.667 µM.

For the compound `O=C(Nc1cc(COC2OC(COC(=O)c3ccccc3)C(OC3OC(CO)C(O)C(O)C3O)C(O)C2O)ccc1Cl)c1cccnc1` (stereo not shown) [Example 17, Benzoic acid 6-{4-chloro-3-[(pyridine-3-carbonyl)-amino]-benzyloxy}-4,5-dihydoxy-3-(3,4,5-trihydroxy-6-hydroxymethyl-tetrahydro-pyran-2-yloxy)-tetrahydro-pyran-2-ylmethyl ester hydrochloride], the IC50 turned out to be 0.245 µM.

Turning to `O=C(OC[C@H]1O[C@H](O[C@H]2[C@H](O)[C@@H](O)[C@H](OCc3ccc(Cl)c([N+](=O)[O-])c3)O[C@@H]2CO)[C@H](O)[C@@H](O)[C@@H]1O)c1cccnc1` [Example 15, (4-Chloro-3-nitrophenyl)methyl-4-O-[6-O-(3-pyridinylcarbonyl)-α-D-glucopyranosyl]-β-D-glucopyranoside], the IC50 worked out at 73.2 µM.

Take `CC(=O)O[C@@H]1[C@@H](OC(C)=O)[C@@H](O[C@H]2[C@H](OC(C)=O)[C@@H](OC(C)=O)[C@H](OCc3ccc(C)c([N+](=O)[O-])c3)O[C@@H]2Cn2cnc([N+](=O)[O-])c2)O[C@H](Cn2cnc([N+](=O)[O-])c2)[C@H]1OC(C)=O` [Example 23, 5-{[2,2′,3,3′,4′-Penta-O-acetyl-6,6′-dideoxy-6,6′-bis(4-nitro-imidazol-1-yl)-β-maltosyl]-oxy-methyl}-2-methyl-1-nitrobenzene]: the IC50 was found to be 4.7 µM.

Take `Cc1ccc(S(=O)(=O)OC[C@H]2O[C@H](O[C@H]3[C@H](O)[C@@H](O)[C@H](OCc4ccc(C)c([N+](=O)[O-])c4)O[C@@H]3COS(=O)(=O)c3ccc(C)cc3)[C@H](O)[C@@H](O)[C@@H]2O)cc1` [Example 20, 5-{[6,6′-Bis-O-(4-toluenesulfonyl)-β-maltosyl]-oxy-methyl}-2-methyl-1-nitrobenzene]: the IC50 was determined as 0.74 µM.

In the case of `CC(=O)Nc1cc(CO[C@@H]2O[C@H](CO[Si](C)(C)C(C)(C)C)[C@@H](O[C@H]3O[C@H](CO[Si](C)(C)C(C)(C)C)[C@@H](O)[C@H](O)[C@H]3O)[C@H](O)[C@H]2O)ccc1Cl` [Example 11, N-{2-Chloro-5-[6,6′-di-O-(tert-butyl-dimethyl-silvl)-β-D-maltosyloxy-methyl]-phenyl}-acetamide], the IC50 was 3.9 µM.

`CC(=O)Nc1cc(CO[C@@H]2O[C@H](COC(=O)c3ccccc3)[C@@H](O[C@H]3O[C@H](COC(=O)c4ccccc4)[C@@H](O)[C@H](O)[C@H]3O)[C@H](O)[C@H]2O)ccc1Cl` [Example 12, N-{2-Chloro-5-[([6,6′-di-O-benzoyl-β-D-maltosyl]oxy)methyl]phenyl}-acetamide]: the IC50 was in the range of 0.39 to 2.2 µM.
